Results taken from ChEMBL document CHEMBL1201862, “PubChem BioAssay data set” (2004).
Calls of active or inactive are those of the source.

Legend:
[1] = test system: Streptococcus sp. 'group A'; test: growth inhibition of control SK(-) GAS strain, dose response, counter-screen for streptokinase expression inhibitor project, luminescence, kanamycin, BacTiterGlo, confirmation (AID 1900); type: functional, organism-based
Streptokinase A = biological target: T1, Streptokinase A (Streptococcus pyogenes serotype M1, UniProt P10520); test: S. pyogenes streptokinase expression inhibitors, potency, dose response, plasminogen activation absorbance, OD405 (AID 1914); type: functional, Streptococcus pyogenes M1 GAS;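 also: secreted streptokinase activity via plasminogen activation per viability signal from cell pellet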
T1 sequence (P10520 whole entry): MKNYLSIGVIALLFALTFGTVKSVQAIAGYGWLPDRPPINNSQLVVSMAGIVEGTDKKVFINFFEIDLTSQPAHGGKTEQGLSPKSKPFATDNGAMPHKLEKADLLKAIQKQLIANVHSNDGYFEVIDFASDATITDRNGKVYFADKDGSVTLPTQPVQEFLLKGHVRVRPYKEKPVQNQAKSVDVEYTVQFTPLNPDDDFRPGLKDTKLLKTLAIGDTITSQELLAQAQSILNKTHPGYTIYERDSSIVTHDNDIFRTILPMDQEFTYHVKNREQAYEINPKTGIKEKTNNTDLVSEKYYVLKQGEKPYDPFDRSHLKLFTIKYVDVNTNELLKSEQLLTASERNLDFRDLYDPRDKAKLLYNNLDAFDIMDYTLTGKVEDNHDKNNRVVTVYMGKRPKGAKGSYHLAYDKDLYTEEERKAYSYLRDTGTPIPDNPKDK

[2] = biological target: FAD-linked sulfhydryl oxidase ALR (Homo sapiens, UniProt P55789); test: inhibitors of human ALR sulfhydryl oxidase, dose response, biochemical, H2O2 detection, luminescence, cherry-pick (AID 493248)
Chain of FAD-linked sulfhydryl oxidase ALR (P55789 whole entry): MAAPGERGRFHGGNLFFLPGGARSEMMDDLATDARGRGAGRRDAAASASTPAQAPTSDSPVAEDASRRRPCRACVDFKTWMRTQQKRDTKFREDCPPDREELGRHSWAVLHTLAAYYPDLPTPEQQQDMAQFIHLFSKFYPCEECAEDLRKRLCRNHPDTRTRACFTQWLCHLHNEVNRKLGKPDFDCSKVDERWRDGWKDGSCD

[3] = inhibitors of intracellular T. cruzi replication, confirmation, NIH3T3 host cells, beta-gal luminescence (AID 2044); type: functional, cell-based;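 also: intracellular parasites grown in NIH/3T3 mouse fibroblasts as host cells; luminescent beta-galactosidase reporter signal from transgenic T. cruzi replicating inside host cells; inhibitors lower the luminescence signal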
Streptococcus = test: Group A Streptococcus viability loss, dose response, counter-screen for streptokinase expression inhibitor project, luminescence, BacTiterGlo (AID 1915); type: functional, organism-based;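 also: potency for reduction of bacterial viability or growth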
[4] = cytotoxicity toward NIH3T3 fibroblasts, dose response, counter-screen, cell-based, ATP luminescence, mouse fibroblasts (AID 2010); type: functional;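 also: cells exposed to compound for about 90 hours before reading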
Protein skinhead-1 = biological target: T2, Protein skinhead-1 (Caenorhabditis elegans, UniProt P34707); type: functional
T2 sequence (P34707 whole entry): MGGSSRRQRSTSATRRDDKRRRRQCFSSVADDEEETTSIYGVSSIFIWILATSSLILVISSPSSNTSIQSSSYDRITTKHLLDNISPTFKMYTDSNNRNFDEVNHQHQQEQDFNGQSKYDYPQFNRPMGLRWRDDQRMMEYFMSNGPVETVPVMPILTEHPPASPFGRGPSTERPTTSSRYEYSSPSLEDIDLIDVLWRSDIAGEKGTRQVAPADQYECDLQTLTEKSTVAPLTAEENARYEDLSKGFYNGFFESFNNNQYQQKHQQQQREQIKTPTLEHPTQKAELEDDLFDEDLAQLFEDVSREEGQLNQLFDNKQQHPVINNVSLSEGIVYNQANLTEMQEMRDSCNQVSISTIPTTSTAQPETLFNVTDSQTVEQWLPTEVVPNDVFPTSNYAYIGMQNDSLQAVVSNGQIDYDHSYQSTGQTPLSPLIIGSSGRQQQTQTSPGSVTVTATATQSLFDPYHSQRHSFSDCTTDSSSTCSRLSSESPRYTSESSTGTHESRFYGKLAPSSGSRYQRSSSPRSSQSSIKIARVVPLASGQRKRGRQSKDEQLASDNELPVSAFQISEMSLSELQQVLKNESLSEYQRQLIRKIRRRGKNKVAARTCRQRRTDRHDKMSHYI

H4 = test: Luminescence Cell-Based Dose Response HTS to Identify Activators of 5'UTR Stem-Loop Driven Prion Protein mRNA Translation in H4 Neuroglioblastoma Cells. [Related pubchem assays: 1829 (Project Summary), 1814 (Primary HTS)]; type: functional; conditions: Homo sapiens
[5] = Luminescence Cell-Based Dose Response HTS to Identify Activators of Luciferase Translation or Activity in H4 […] Cells. [Related pubchem assays: 1829 (Project Summary), 1814 (Primary HTS)]; type: functional
Cytochrome P450 1A2 = biological target: T3, Cytochrome P450 1A2 (Homo sapiens, UniProt P05177);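 also: PubChem cytochrome P450 panel assay, CYP1A2 panel member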
T3 sequence (P05177 whole entry): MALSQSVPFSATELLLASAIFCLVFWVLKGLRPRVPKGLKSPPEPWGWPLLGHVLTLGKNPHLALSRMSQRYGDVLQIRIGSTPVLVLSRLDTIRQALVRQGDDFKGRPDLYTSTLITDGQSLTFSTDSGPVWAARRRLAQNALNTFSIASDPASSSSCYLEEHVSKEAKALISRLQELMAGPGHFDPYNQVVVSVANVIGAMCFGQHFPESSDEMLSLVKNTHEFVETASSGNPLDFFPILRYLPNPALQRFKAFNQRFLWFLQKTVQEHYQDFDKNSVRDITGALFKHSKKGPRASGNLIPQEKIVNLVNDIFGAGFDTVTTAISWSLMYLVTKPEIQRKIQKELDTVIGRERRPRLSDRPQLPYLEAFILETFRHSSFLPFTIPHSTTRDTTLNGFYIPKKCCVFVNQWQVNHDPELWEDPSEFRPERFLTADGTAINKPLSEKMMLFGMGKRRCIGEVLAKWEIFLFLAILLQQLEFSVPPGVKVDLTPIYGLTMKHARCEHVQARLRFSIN

Cytochrome P450 2C9 = Cytochrome P450 2C9 (Homo sapiens, UniProt P11712)
Chain of Cytochrome P450 2C9 (P11712 whole entry, the tested form may be a part): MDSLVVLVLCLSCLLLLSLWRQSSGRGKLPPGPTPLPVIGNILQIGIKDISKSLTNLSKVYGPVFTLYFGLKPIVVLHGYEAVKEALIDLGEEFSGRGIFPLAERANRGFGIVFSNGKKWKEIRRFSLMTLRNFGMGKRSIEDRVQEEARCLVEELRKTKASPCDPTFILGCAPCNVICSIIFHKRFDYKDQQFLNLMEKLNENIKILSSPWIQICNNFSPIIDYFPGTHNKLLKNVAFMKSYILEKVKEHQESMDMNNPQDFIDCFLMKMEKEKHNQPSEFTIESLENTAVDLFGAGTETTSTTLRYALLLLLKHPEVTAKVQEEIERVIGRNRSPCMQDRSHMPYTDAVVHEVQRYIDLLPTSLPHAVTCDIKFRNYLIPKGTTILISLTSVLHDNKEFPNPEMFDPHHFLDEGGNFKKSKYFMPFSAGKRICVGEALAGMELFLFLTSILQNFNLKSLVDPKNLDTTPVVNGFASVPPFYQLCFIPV

[6] = biological target: T4, RNA-binding protein pos-1 (Caenorhabditis elegans, UniProt G5EF15); test: inhibitors of POS-1/mex-3 RNA binding, dose response, biochemical, fluorescence polarization (AID 1964);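 also: purified POS-1 fused to maltose binding protein made in E. coli; potency of compounds blocking POS-1 binding to fluorescent RNA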
T4 sequence (G5EF15 whole entry): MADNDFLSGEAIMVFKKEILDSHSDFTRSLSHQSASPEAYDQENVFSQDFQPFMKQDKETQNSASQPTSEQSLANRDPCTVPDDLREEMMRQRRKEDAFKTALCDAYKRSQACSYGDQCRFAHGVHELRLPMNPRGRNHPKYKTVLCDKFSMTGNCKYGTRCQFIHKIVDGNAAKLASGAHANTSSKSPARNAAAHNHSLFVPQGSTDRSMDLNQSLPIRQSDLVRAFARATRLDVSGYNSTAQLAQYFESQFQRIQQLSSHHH

[7] = biological target: T5, Zinc finger protein mex-5 (Caenorhabditis elegans, UniProt Q9XUB2); test: MEX-5/TCR-2 RNA interaction inhibitors, dose response, biochemical, C. elegans, fluorescence polarization (AID 1960)
T5 sequence (Q9XUB2 whole entry): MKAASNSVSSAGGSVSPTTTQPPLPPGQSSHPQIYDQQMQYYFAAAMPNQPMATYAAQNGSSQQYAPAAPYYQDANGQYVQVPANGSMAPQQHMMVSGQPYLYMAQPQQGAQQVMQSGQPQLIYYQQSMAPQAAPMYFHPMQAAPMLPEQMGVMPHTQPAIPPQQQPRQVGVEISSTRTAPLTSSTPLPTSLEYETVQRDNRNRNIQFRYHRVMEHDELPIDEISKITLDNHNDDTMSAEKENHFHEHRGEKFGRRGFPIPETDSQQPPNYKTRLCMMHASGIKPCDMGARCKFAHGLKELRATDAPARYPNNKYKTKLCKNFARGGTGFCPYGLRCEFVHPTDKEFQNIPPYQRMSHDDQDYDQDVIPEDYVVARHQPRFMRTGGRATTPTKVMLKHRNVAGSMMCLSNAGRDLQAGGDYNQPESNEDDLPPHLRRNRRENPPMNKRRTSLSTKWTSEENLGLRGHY

Cytochrome P450 2C19 = Cytochrome P450 2C19 (Homo sapiens, UniProt P33261); test: Cytochrome panel assay with activity outcomes. Panel member name: p450-cyp2c19 Compounds with AC50 equal or less than 10 uM are considered active; type: functional; conditions: read-out: AC50
Chain of Cytochrome P450 2C19 (P33261 whole entry): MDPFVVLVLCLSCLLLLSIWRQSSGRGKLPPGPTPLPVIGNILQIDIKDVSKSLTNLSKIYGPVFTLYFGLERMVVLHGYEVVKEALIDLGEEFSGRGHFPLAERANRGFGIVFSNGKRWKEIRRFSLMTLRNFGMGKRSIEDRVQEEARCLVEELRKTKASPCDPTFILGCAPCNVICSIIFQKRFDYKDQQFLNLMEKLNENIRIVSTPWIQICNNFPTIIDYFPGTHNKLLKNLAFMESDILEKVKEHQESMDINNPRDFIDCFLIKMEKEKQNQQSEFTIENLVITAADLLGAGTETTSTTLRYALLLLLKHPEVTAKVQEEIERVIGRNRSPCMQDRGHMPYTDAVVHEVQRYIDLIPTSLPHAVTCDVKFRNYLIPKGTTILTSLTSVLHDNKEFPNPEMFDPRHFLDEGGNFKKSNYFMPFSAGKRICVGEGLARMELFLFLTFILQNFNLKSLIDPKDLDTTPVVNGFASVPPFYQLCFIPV

[8] = biological target: T6, Rac GTPase-activating protein 1 (Homo sapiens, UniProt Q9H0H5); test: MgcRacGAP GTPase-activating activity inhibitors, confirmation, biochemical, ADP Hunter fluorescence, primary and confirmatory (AID 624330); type: functional
T6 sequence (Q9H0H5 whole entry): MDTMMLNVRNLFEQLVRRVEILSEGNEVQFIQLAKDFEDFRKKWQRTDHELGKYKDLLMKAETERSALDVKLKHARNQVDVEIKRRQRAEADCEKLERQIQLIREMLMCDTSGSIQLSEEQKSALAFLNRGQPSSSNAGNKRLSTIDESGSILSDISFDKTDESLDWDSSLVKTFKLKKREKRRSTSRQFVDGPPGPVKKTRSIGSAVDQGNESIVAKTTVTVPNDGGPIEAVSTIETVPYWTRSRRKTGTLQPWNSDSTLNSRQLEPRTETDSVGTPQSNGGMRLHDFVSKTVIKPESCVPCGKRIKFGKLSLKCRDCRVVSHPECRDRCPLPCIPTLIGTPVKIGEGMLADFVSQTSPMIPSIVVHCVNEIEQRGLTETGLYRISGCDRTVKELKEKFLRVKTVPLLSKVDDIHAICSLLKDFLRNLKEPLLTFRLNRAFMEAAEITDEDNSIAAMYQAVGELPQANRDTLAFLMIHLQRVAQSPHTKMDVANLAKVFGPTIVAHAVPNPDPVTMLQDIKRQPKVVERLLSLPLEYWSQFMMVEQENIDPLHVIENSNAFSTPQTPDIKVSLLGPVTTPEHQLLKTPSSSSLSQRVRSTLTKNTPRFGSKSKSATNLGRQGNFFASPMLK

Cytochrome P450 2D6 = Cytochrome P450 2D6 (Homo sapiens, UniProt P10635);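 also: CYP2D6 member of a cytochrome P450 panel assay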
Chain of Cytochrome P450 2D6 (P10635 whole entry): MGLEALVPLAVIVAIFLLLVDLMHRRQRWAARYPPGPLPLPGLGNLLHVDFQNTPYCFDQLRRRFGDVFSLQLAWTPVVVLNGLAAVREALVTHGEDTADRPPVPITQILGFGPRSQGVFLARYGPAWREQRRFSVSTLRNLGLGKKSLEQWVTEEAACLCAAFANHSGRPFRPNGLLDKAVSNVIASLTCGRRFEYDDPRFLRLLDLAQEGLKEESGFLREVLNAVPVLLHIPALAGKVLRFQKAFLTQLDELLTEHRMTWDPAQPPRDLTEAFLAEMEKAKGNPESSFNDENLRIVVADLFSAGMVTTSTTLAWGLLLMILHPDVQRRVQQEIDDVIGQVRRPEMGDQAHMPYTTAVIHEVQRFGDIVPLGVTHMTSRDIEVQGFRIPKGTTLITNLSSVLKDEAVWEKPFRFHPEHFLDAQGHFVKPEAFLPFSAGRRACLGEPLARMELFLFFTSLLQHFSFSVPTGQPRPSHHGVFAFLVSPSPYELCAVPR

COc1cccc(N/N=C/c2cccc(Br)c2O)c1
EC50 [1]: 12.5 µM (active)
EC50 (Streptokinase A): 19.6 µM (active)
AC50 [2]: 1.67 µM (active)
EC50 [3]: 3.27 µM (active)
EC50 (Streptococcus): > 150 µM (not active)
EC50 [4]: > 60 µM (not active)

COc1cc(/C=N/NC(=O)c2cccc([N+](=O)[O-])c2)cc(OC)c1O
AC50 [2]: 2.04 µM (active)

COC(=O)[C@H](Cc1ccccc1)NC(=O)N1CCN(c2ccccc2)CC1
AC50 [2]: 6.26 µM (active)

COc1ccc(N2CCN(C(=O)Cc3cccs3)CC2)cc1
AC50 [2]: 2.36 µM (active)

Cc1cccc(C(=O)N(Cc2cccs2)C2CCS(=O)(=O)C2)c1 (configuration not stated)
IC50 (Protein skinhead-1): > 100 µM (inactive)

Nc1ccc2c(Cl)cc(Cl)cc2c1
IC50 (Protein skinhead-1): 22.7 µM (active)

Cc1ccc2c(c1)c(C)c(C)n2CC(O)CN1CCOCC1 (configuration not stated)
IC50 (Protein skinhead-1): > 100 µM (inactive)

Cc1ccc(-c2nc(N/N=C/c3ccccc3[N+](=O)[O-])c3ccccc3n2)cc1
EC50 (H4): 0.595 µM (active)

O=C(N/N=C/c1ccc2nccnc2c1)c1ccccc1O
EC50 [5]: 48.8 µM (active)
EC50 (H4): 44.2 µM (active)

Cn1cnc2cc(NCc3ccc(Cl)cc3)ccc21
AC50 [2]: 5.49 µM (active)

COc1ccc(-c2nnn(CC(=O)N(CC(=O)NCCC(C)C)Cc3cccs3)n2)cc1OC
AC50 (Cytochrome P450 1A2): 31.6 µM (inconclusive)
AC50 (Cytochrome P450 2C9): 7.08 µM (inconclusive)

COc1ccc(C2(CNC(=O)/C=C/c3ccco3)CCCC2)cc1OC
AC50 (Cytochrome P450 1A2): 22.4 µM (inconclusive)
AC50 (Cytochrome P450 2C9): 10 µM (inconclusive)

CCOc1cc2c(cc1/C=C(/C#N)c1ccc(C(=O)O)cc1)OCO2
EC50 [6]: > 300 µM (not active)
EC50 [7]: > 300 µM (not active)

COc1cccc(-c2cccc(NC(=O)C3CCN(CC4CCOC4)CC3)c2)c1 (configuration not stated)
IC50 (Protein skinhead-1): > 100 µM (inactive)

O=C(c1cc(COc2ccc(F)cc2Cl)on1)N1CCCCCC1
IC50 (Protein skinhead-1): > 100 µM (inactive)

CCC(C)Nc1nc2c(c(=O)n(C)c(=O)n2C)n1Cc1cccc(C)c1 (configuration not stated)
AC50 [2]: 8.61 µM (active)

O=C(c1ccco1)N1CCC2(CCCN(C(c3ccccc3)c3ccccc3)C2)CC1
AC50 (Cytochrome P450 1A2): 15.8 µM (inconclusive)
AC50 (Cytochrome P450 2C19): 39.8 µM (inconclusive)

CCOC(=O)CSc1nc2ccccc2c(=O)n1CCN1CCOCC1
IC50 (Protein skinhead-1): > 100 µM (inactive)

O=S1(=O)C=C(Oc2ccc3ccccc3c2)c2ccccc21
IC50 (Protein skinhead-1): > 100 µM (inactive)

CC(NC(=O)c1ccc(N2CCCC2)c([N+](=O)[O-])c1)c1ccc(S(N)(=O)=O)cc1 (configuration not stated)
AC50 [2]: 3.51 µM (active)

CCN(CC)c1ccc(NC(=O)CN2CCN(c3ccccn3)CC2)cc1
AC50 [2]: 0.384 µM (active)
IC50 [8]: 131 µM (active)

Cc1cccc(NC(=O)c2cccc(N3C(=O)C4C5CCC(C5)C4C3=O)c2)c1C (configuration not stated)
AC50 (Cytochrome P450 1A2): 25.1 µM (inconclusive)
AC50 (Cytochrome P450 2C9): 22.4 µM (inconclusive)

Cc1ccc(NC(=O)CCOc2ccccc2)cc1
EC50 [5]: 92.6 µM (active)
EC50 (H4): > 120 µM (not active)

O=C(CN1CCN(S(=O)(=O)c2ccc(F)cc2)CC1)Nc1ccc2c(c1)OCO2
AC50 (Cytochrome P450 1A2): 25.1 µM (inconclusive)
AC50 (Cytochrome P450 2D6): 5.01 µM (inconclusive)
AC50 (Cytochrome P450 2C19): 3.98 µM (inconclusive)
AC50 (Cytochrome P450 2C9): 11.2 µM (inconclusive)

O=C(Nc1nccs1)c1ccc(-c2ccc([N+](=O)[O-])cc2)o1
EC50 [6]: 12.3 µM (inconclusive)
EC50 [7]: 6.66 µM (active)

CCc1ccc(CNc2ccc(N3CCN(C(C)=O)CC3)cc2)cc1
AC50 [2]: 0.445 µM (active)
IC50 [8]: 9.44 µM (active)

COc1ccccc1N1CCN(C[C@@H](C(=O)NC(C)(C)C)c2ccccc2)CC1
AC50 (Cytochrome P450 1A2): 0.631 µM (inconclusive)
AC50 (Cytochrome P450 2D6): 20 µM (inconclusive)

CCCC(C)C(=O)NCc1ccccc1OC (configuration not stated)
IC50 (Protein skinhead-1): > 100 µM (inactive)

Cc1cc(O)c(C(C)C)cc1NC(=O)Nc1ccc([N+](=O)[O-])cc1
IC50 (Protein skinhead-1): 68.4 µM (inactive)

N#CC1=C(N)n2c(s/c(=C\c3cccs3)c2=O)=C(C#N)C1c1cccs1 (configuration not stated)
AC50 [2]: 5.68 µM (active)

CCOC(=O)c1c(NC(=O)CCC(=O)N2CCOCC2)sc2c1CC(C)(C)OC2
AC50 (Cytochrome P450 1A2): 15.8 µM (inconclusive)
AC50 (Cytochrome P450 2C19): 0.224 µM (inconclusive)
AC50 (Cytochrome P450 2C9): 0.00562 µM (inconclusive)
